Assay results from US20170211073A1, “ANTISENSE ANTINEOPLASTIC AGENT” (priority 2014, published 2017).

Tests used:
[1] = system: human large intestine cancer cells HCT116; assay: Antitumor effect of YB-1 ASO AmNA into blood, HCT116 subcutaneous tumor; type: in vivo, nude mice
Protocol: Antitumor effect of administration into blood of YB-1 ASO of AmNA type, of which high safety was confirmed in Example 9 compared with ASO constituted with the conventional BNA, was examined. The human large intestine cancer cells HCT116 were subcutaneously transplanted to the thighs of nude mice. After subcutaneous tumors having a diameter of 6 to 7 mm (average tumor volume, 78 vs. 72 mm^3) were formed, 200 μg/200 μL of YB-1 ASO AmNA was administered (once every two weeks, total 2 times) into the blood from the caudal veins. The diameters of the tumors were measured over time, and tumor volumes calculated in accordance with a calculation formula, (Major axis)×(Minor axis)/2, were compared with those obtained with the control antisense group. The subcutaneous tumors were collected after one week from the second administration (day 28), and weights thereof were compared. In the YB-1 ASO AmNA group, both the tumor diameter and tumor weight were suppressed to about ⅕ of those observed with the control antisense group (FIG. 10, *P<0.05).

[2] = system: gemcitabine-resistant pancreatic cancer SUIT2-GR cells; assay: Repetitive administration into blood, SUIT2-GR subcutaneous tumor growth; type: in vivo, nude mice; conditions: 10 mg/kg BW caudal vein once a week over three weeks, days 14 and 21
Protocol: (§1) The tumor diameters were measured over time.

[3] = system: large intestine cancer HCT116 cells; assay: Repetitive administration into blood, HCT116 subcutaneous tumor growth; type: in vivo, nude mice; conditions: 10 mg/kg BW caudal vein once a week over three weeks, days 14 and 21
Protocol: as §1

[4] = system: pancreatic cancer cell strain SUIT2; assay: Apoptosis induction in SUIT2 by FACS and Western blotting (PARPp85, caspase-3); type: cell-based; conditions: 20 nM, in vitro
Protocol: In the same manner as that of Example 3, 20 nM of #10AmNA YB-1 antisense was introduced into the cells of the pancreatic cancer cell strain SUIT2 in vitro.

CD31 = assay: Microvessel density by CD31 immunostaining in SUIT2-GR subcutaneous tumor; type: in vivo, nude mice; conditions: administration into the blood
Excerpt: The neovascularity marker CD31 in the SUIT2-GR subcutaneous tumor of the treatment experiment (A) was immunostained. As a result, it was observed that the microvessel density was decreased by the administration of #10 AmNA YB-1 antisense into the blood, and thus inhibition of neovascularization was induced (FIG. 14C).

Lewis lung cancer = Lewis lung cancer subcutaneous tumor model; type: in vivo; conditions: 10 mg/kg BW caudal vein once a week for three weeks; days 14 and 21; vs control antisense group
Protocol: Subcutaneous tumor models of lung cancer, Lewis lung cancer, were created. […] The tumor diameters were measured over time.

YB-1 [5] = assay: YB-1 expression in H226 by real-time RT-PCR; type: cell-based; conditions: Lipofectamine RNAiMax
Excerpt: The #10 AmNA YB-1 antisense was introduced into cells of the malignant mesothelioma cell strain H226 using the reagent Lipofectamine RNAiMax, and expression of YB-1 was examined by real-time RT-PCR.

[6] = system: malignant mesothelioma cell strain H226; assay: Proliferation of H226 cells; type: cell-based
[7] = system: malignant mesothelioma cell strain H226; assay: H226 subcutaneous tumor model; type: in vivo; conditions: 10 mg/kg BW caudal vein once a week for two weeks, vs control group
Protocol: Subcutaneous tumor models of the malignant mesothelioma cell strain H226 were prepared. […] A photograph of the subcutaneous tumor after the treatment is shown in the left panel.

[8] = system: ovarian cancer cell strain SKOV3; assay: SKOV3-luciferase peritoneum inoculation model; type: in vivo; conditions: 10 mg/kg BW intraperitoneally once a week for two weeks, vs control group
Protocol: (§2) Peritoneum inoculation models of ovarian cancer cell strain SKOV3 stably expressing luciferase were prepared. Then, after 1 week from the transplantation of the cancer cells, 10 mg/kg BW of #10 AmNA YB-1 antisense was intraperitoneally administered once a week for two weeks, and the tumor volume was evaluated over time in terms of the luciferase activity.

YB-1 [9] = assay: YB-1 expression in AS44 by real-time RT-PCR; type: cell-based; conditions: Lipofectamine RNAiMax
Excerpt: The #10 AmNA YB-1 antisense was introduced into cells of the gastric cancer cell strain AS44 using the reagent Lipofectamine RNAiMax, and expression of YB-1 was examined by real-time RT-PCR.

[10] = system: gastric cancer cell strain AS44; assay: Proliferation of AS44 cells; type: cell-based
[11] = system: gastric cancer cell strain AS44-luc; assay: AS44-luc peritoneum inoculation model, survival; type: in vivo; conditions: 10 mg/kg BW intraperitoneally once a week for two weeks, vs control group
Protocol: as §2, with “gastric” for “ovarian”, “AS44-luc” for “SKOV3”

[12] = system: ovarian cancer cell strain SKOV-3; assay: Anticancer agent sensitivity enhancement, SKOV-3; type: cell-based; conditions: antisense 5 nM, 5-FU, gemcitabine
Protocol: The #10 AmNA YB-1 antisense (5 nM) was introduced into cells of the pancreatic cancer cell strain MIA PaCa-2 (FIG. 19A) and ovarian cancer cell strain SKOV-3 (FIG. 19B) using the reagent Lipofectamine RNAiMax, and cell-killing effects of the anticancer agent observed in the presence and absence of the antisense were compared. […] The anticancer agent concentrations that provided equivalent cell-killing effects are shown in blue color (5-FU) or red color (gemcitabine).

YB-1 [13] = assay: YB-1 knockdown efficiency of NA, BNA and AmNA antisenses in HUVEC, HPAEC, MiaPaCa2 (real-time RT-PCR); type: cell-based; conditions: 24 hours, vs naturally occurring type and LNA type antisense
Protocol: YB-1 naturally occurring type nucleic acid antisense (NA), LNA/BNA type nucleic acid antisense (BNA), and AmNA type nucleic acid antisense (AmNA) were introduced into cells of the vascular endothelial cell strains (HUVEC, HPAEC) and the pancreatic cancer cell strain (MiaPaCa2-) at various concentrations. RNAs were extracted 24 hours afterward, and the YB-1 expression was evaluated by real-time RT-PCR. […] The graphs show mean±SD (n=3, *P<0.01 vs. BNA, P<0.0001 vs. NA)

YB-1 [14] = assay: YB-1 knockdown siRNA vs AmNA-AON, mRNA level (real-time RT-PCR); type: cell-based; conditions: AsPC-1, MIA PaCa-2, Suit-2; 20 nM; 48 hours
Protocol: YB-1-siRNA or YB-1 #10AmNA was introduced (final concentration, 20 nM) into cells of the pancreatic cancer cell strains (AsPC-1, MIA PaCa-2, and Suit-2). After 48 hours, RNAs and proteins were extracted, and the YB-1 expression was evaluated by real-time RT-PCR and Western blotting at the mRNA level (A) and protein level (B), respectively. Both the knockdown efficiencies obtained with siRNA and #10 AmNA-AON were high at the mRNA level, and any clear difference was not observed between them. […] The graphs show mean±SD (n=3, *P<0.05).

[15] = General blood and biochemical examinations, mice with Suit2-GR sc tumor; conditions: SUIT2-GR and HCT116 models; 10 mg/kg BW once a week over three weeks
Protocol: Subcutaneous tumor models were created by subcutaneously transplanting gemcitabine-resistant pancreatic cancer SUIT2-GR cells and large intestine cancer HCT116 cells to the thighs of nude mice. After tumors having a volume of 50 mm^3 were formed, 10 mg/kg BW of #10AmNA YB-1 antisense was administered from the caudal veins once a week over three weeks. The tumor diameters were measured over time.

TCTcctgcaccCTGg (TCTCCTGCACCCTGG; chemistry not fully specified) [#10AmNA]
tumor diameter as fraction of control antisense group ([1]; 200 μg/200 μL caudal vein, once every two weeks, total 2 times): about ⅕
tumor weight as fraction of control antisense group ([1]; day 28): about ⅕
subcutaneous tumor-suppressing effect [2]: significant subcutaneous tumor-suppressing effect
subcutaneous tumor-suppressing effect [3]: significant subcutaneous tumor-suppressing effect
induction of apoptosis (FACS; PARPp85, caspase-3) [4]: Induction of apoptosis was observed
microvessel density (CD31) (CD31): decreased
increase of the tumor (Lewis lung cancer): significantly suppressed
suppression of YB-1 expression (YB-1 [5]): Concentration-dependent suppression
suppression of proliferation [6]: suppression of proliferation
increase of the tumor in terms of tumor weight [7]: significantly suppressed
tumor volume (luciferase activity) [8]: significantly suppressed
suppression of YB-1 expression (YB-1 [9]): Concentration-dependent suppression
suppression of proliferation [10]: suppression of proliferation
survival rate (Kaplan-Meier) [11]: significantly increased
cell-killing effects of the anticancer agent in presence of the antisense [12]: Enhancement of the cell-killing effect
YB-1 knockdown efficiency (YB-1 [13]): significantly higher
knockdown efficiency at the mRNA level (YB-1 [14]): high
safety with the every week administration protocol [15]: any problem was not observed
